{
  "source": "patent US5792758A",
  "about": "“Steroid nitrite ester derivatives useful as anti-inflammatory drugs” (G. D. Searle & Co., priority 1995, dated 1998)",
  "tested_on": "rat aortic ring",
  "experiment": "In vitro smooth muscle relaxant activity assay (rat aortic ring assay) in the presence of Cys and L-NAME",
  "format": "cell-based",
  "conditions": "for EC50: rat aortic rings precontracted with phenylephrine (0.3 uM), read-out: Relaxation, EC50",
  "method": "The rat aortic ring assay was utilized as a bioassay to measure the relaxant activity. The rings were precontracted with phenylephrine (0.3 uM) and subsequently compounds were added to the tissue bath in the presence of cysteine (Cys) and N^G -L-nitroarginine methyl ester (L-NAME): In vitro smooth muscle relaxant activity assay in the presence of Cys and L-NAME: […]",
  "data": [
    {"smiles": "CCCC1O[C@@H]2C[C@H]3[C@@H]4CCC5=CC(=O)C=C[C@]5(C)[C@H]4[C@@H](O)C[C@]3(C)[C@]2(C(=O)CO[N+](=O)[O-])O1", "note": "(stereo partly shown) [Example 2A, Budesonide-21-Nitrate ester]", "values": [
      {"measurement": "EC50", "result": 5, "unit": "µM"}
    ]},
    {"smiles": "CCCC1O[C@@H]2C[C@H]3[C@@H]4CCC5=CC(=O)C=C[C@]5(C)[C@H]4[C@@H](O)C[C@]3(C)[C@]2(C(=O)CO)O1", "note": "(stereo partly shown) [budesonide, 16a,17-butylidenedioxyprednisolone]", "values": [
      {"measurement": "smooth muscle relaxant activity (in words)", "setting": "rat aortic rings precontracted with phenylephrine", "result": "did not show any effect"},
      {"measurement": "EC50", "result": 100, "unit": "µM"}
    ]},
    {"smiles": "CCCC1O[C@@H]2C[C@H]3[C@@H]4CCC5=CC(=O)C=C[C@]5(C)[C@H]4[C@@H](ON=O)C[C@]3(C)[C@]2(C(=O)CO)O1", "note": "(stereo partly shown) [Example 1, Budesonide-11-nitrite ester]", "values": [
      {"measurement": "EC50", "result": 0.02, "unit": "µM"}
    ]}
  ]
}
